Consider three molecules from US20140141069A1, “BETA-GUANIDINOPROPIONIC ACID FOR THE TREATMENT OF HYPERTENSION” (priority 2011, published 2014).

In data set [1] the test system is creatine kinase. Particulars: creatine kinase reaction; cited from earlier work.
In another data set the test system is SH rats. Nature of the data set: Tail cuff blood pressure in SH adult rats given 3% β-GPA (Example 4). The class given is in vivo, rat. Particulars: 3% β-GPA in feed, tailcuff method. The protocol:
A total of 24 SH adult rats are divided into 4 groups: the test group is given 3% β-GPA , a second group is given 3% creatine, a third group is given 3% creatine +3% β-GPA; and a control group receives only normal feed. SH rats are usually also associated with high creatine kinase levels, although it is unknown whether this is cause or result of the spontaneous high blood pressure. […] Blood pressure was measured at the tail using standard methods (tailcuff method). In the control group, the blood pressure rises. An absence in the rise of blood pressure or even a reduction in the blood pressure in the test group indicates the blood pressure lowering effect of β-GPA. In order to exclude a possible effect of creatine deficiency or a possible effect of creatine itself on the blood pressure level, the two additional control groups (3% creatine or 3% creatine +3% β-GPA).

For a further data set, the system named is rats. The note with it: 1% in rat chow, up to 8 weeks of feeding; cited from earlier work.
The conditions of data set [2]: cited from earlier work.
Data set [3] deals with myocardial phosphocreatine and creatine. The note with it: high doses; cited from earlier work.
The nature of data set [4]: Certified toxicological testing of marketed β-guanidinopropionic acid. The note with it: preliminary tests of product marketed for human use.
The test system of another data set is SHR mesenteric arteries. Nature of the data set: Vasodilation/contractility of SHR mesenteric arteries in vitro in a wire myograph with the CK-inhibitor DNFB. Particulars: p<0.01. On the set-up: species or system rat.
In data set [5] the test system is Spontaneous Hypertension (SH) rats. The data set is described as follows: Blood pressure of non-obese SH rats on creatine-free diet with 0.1% β-guanidinopropionic acid. The class given is in vivo, rat. The note with it: feed contained 0.1% β-guanidinopropionic acid. The source says: The effects of β-guanidinopropionic acid can not be explained by, for example, a reduction in weight.

A further data set relates to SHR. The data set is described as follows: Tail cuff blood pressure in SHR on a diet with β-GPA versus standard diet (Example 5). The class given is in vivo, rat. The protocol: Male, non-obese, normoglycaemic, 16-weeks-old SHR without lipid abnormalities were randomly assigned to a diet with β-GPA versus a standard diet without β-GPA (N=8 per group). Blood pressure was measured weekly with the tail cuff method. All blood pressure measurements were performed unblinded under equal conditions. Body temperature was kept constant during the measurements at 36-38° C. […] Data are expressed as mean (SEM).

In data set [6] the test system is creatine kinase. Particulars: equimolar quantities of DNFB, cited from earlier work.
For data set [7], the system named is ADP-dependent platelet aggregation. Nature of the data set: Blood CK titration at 1 μmol/L ADP, platelet aggregation (pilot experiment). The class given is cell-based.

Like-named read-outs stand apart in the source and are kept apart here.

Regarding `NC(N)=NCCC(=O)O` [β-GPA, 3-(diaminomethylideneamino)propanoic acid], in the data set with creatine kinase [1], the “in vitro Vmax relative to the Vmax values of creatine and phosphocreatine” value is on record as under 1%. For the same molecule, the “Blood pressure level versus control SH rats” value in the data set on SH rats is given as “lower than that of the control SH rats”. Besides, the “Cardiac function or sprint capacity in vivo” value in the data set on rats is recorded as “does not lead to reduced cardiac function or overtly reduced sprint capacity”. The Solubility in water entry in data set [2] is on record as “up to 50 mg/ml”. Also, the “Reduction of myocardial phosphocreatine and creatine concentrations” value in data set [3] was “up to 80%”. Also, the Certified toxicological testing result in [4] is given as “passed certified toxicological testing”. Further, in the data set on SHR mesenteric arteries (mesenteric arteries of rats treated with β-GPA compared to controls, DNFB, mean (SEM)), the “Residual contractility after the CK inhibitor DNFB, versus controls” value is on record as −41.3 (13.0) %. Besides, in the data set with SHR mesenteric arteries (rats treated with β-GPA before sacrifice, in vitro incubation with dinitrofluorobenzene, N=5 to 6 per group), the “Vasodilation of mesenteric arteries compared to controls” value is reported as “significantly increased”. Besides, the “Blood pressure rise characteristic for SH rats” value in data set [5] was “did not show blood pressure rise”. Moreover, the Weight changes result in the data set with SHR (diet with β-GPA) is “no significant weight changes”. Moreover, in the data set on SHR (diet with β-GPA vs controls, 4 weeks, tail cuff, mean (SEM), N=8 per group, p<0.001), the Systolic pressure reduction is listed as −42.7 (5.5) mm Hg. Also, the Diastolic pressure reduction in the data set on SHR (diet with β-GPA vs controls, tail cuff, mean (SEM), p<0.001) is given as −35.3 (4.8) mm Hg.
On to `O=[N+]([O-])c1ccc(F)c([N+](=O)[O-])c1` [DNFB, dinitrofluorobenzene], for which the “Mean inhibition of contraction” value with creatine kinase [6] (blacks) was 0.32; in the data set with creatine kinase [6] (whites) it was 0.90.
`CN(CC(=O)O)C(=N)NP(=O)(O)O` [CrP, phosphocreatine]: the “Inhibition of ADP-dependent platelet aggregation with increasing CK” value in data set [7] was “greater inhibition of ADP-dependent platelet aggregation”.
